In patent US10336759B2, “Salts and processes of preparing a PI3K inhibitor” (Incyte Corporation, priority 2015, dated 2019) one finds IC50 and JAK2/JAK1 data, which are given here for 22 compounds.

Test [1] concerns the target JAK1 (Homo sapiens (Human), UniProt P23458). Description: Assay A, JAK1 IC50 at 1 mM ATP. In kind it is biochemical. To be noted: method of Assay A at 1 mM ATP; #3 data for enantiomer 1, #14 data for enantiomer 2.
Test [2] has as its target JAK2 (Homo sapiens (Human), UniProt O60674). Description: Assay A, JAK2 versus JAK1 (ratio). In kind it is biochemical. To be noted: ratio of IC50s, Assay A at 1 mM ATP.

Each structure is given as a SMILES string.

Sequence of JAK1 (P23458 whole entry, species assumed): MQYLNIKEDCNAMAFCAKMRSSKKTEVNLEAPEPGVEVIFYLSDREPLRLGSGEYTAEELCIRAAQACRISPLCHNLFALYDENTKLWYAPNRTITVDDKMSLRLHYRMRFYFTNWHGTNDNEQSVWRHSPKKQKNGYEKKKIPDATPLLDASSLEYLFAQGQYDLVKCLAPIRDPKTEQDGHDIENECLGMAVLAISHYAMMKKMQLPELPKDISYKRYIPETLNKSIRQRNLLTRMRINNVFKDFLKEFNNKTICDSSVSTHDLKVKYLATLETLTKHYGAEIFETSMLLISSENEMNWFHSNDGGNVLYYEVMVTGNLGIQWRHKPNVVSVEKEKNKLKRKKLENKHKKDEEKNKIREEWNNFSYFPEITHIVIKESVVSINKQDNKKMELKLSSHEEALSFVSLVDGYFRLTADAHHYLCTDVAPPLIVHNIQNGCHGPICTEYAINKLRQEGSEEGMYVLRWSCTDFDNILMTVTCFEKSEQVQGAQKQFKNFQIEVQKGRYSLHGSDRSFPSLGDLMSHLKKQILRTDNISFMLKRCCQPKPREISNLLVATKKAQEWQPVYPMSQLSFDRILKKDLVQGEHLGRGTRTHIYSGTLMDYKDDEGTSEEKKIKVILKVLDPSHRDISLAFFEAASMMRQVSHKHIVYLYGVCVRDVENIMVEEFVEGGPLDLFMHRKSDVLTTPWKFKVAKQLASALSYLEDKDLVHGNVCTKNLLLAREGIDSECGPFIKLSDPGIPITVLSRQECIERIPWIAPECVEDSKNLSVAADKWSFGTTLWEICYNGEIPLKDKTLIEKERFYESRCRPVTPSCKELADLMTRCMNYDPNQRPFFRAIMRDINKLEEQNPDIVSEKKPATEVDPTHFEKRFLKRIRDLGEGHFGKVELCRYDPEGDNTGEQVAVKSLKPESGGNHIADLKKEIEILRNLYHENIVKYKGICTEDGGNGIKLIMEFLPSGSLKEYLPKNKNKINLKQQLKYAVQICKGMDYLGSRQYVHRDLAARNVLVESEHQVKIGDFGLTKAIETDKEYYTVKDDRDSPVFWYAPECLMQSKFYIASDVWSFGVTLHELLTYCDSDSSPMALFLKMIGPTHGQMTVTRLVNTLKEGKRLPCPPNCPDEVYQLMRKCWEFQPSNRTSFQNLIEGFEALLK
Sequence of JAK2 (O60674 whole entry, species assumed): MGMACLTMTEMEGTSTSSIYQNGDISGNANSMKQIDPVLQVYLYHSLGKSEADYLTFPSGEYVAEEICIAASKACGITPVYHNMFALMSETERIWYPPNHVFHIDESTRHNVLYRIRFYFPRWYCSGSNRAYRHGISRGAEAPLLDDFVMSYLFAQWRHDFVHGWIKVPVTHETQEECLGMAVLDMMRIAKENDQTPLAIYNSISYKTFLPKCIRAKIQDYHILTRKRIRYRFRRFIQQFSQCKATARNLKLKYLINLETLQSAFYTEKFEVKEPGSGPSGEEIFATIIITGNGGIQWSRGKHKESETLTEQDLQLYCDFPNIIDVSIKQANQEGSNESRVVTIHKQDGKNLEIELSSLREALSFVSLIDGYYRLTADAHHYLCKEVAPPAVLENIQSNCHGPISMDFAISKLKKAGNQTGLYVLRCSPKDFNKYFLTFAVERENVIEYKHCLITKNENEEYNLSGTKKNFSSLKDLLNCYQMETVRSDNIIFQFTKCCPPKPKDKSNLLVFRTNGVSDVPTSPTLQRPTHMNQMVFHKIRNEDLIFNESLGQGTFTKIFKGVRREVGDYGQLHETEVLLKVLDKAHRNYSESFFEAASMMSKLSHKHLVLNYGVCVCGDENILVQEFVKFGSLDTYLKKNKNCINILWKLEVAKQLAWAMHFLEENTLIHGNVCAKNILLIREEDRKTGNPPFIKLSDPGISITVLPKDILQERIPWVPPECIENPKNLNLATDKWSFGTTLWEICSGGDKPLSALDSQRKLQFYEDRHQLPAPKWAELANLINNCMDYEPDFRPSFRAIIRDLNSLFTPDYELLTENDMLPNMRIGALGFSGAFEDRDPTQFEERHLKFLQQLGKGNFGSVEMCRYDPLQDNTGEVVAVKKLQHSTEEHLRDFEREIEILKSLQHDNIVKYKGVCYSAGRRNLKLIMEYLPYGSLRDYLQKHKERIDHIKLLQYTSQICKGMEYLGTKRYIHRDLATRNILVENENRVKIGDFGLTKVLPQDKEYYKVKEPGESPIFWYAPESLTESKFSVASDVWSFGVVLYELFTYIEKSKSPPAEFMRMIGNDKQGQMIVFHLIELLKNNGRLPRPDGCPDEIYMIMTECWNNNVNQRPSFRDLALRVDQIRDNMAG

As for `N#CCC(C1CCN(c2cccc(Cl)n2)C1)n1cc(-c2ncnc3[nH]ccc23)cn1` (single isomer, unassigned) [Example 3, 3-[1-(6-chloropyridin-2-yl)pyrrolidin-3-yl]-3-[4-(7H-pyrrolo[2,3-d]pyrimidin-4-yl)-1H-pyrazol-1-yl]propanenitrile], the IC50 in test [1] was below 0.01 µM. Besides, the JAK2/JAK1 in test [2] is on record as above 10.
On to `C[C@@H](O)c1nc2cnc3ccsc3c2n1[C@H]1CC[C@H](CC#N)OC1` [Example 1, ((2R,5S)-5-{2-[(1R)-1-hydroxyethyl]-1H-imidazo[4,5-d]thieno[3,2-b]pyridin-1-yl}tetrahydro-2H-pyran-2-yl)acetonitrile], for which, in test [2], the JAK2/JAK1 was above 10.
The compound `N#CCC(C1CCN(c2nc3cccnc3o2)C1)n1cc(-c2ncnc3[nH]ccc23)cn1` (stereo not shown) [Example 4, 3-(1-[1,3]oxazolo[5,4-b]pyridin-2-ylpyrrolidin-3-yl)-3-[4-(7H-pyrrolo[2,3-. d]pyrimidin-4-yl)-1H-pyrazol-1-yl]propanenitrile] showed an IC50 in test [1] below 0.01 µM. In test [2], the JAK2/JAK1 is reported as above 10.
For `N#CCC(CN1CCN(C(=O)c2ccc(C#N)cc2F)CC1)n1cc(-c2ncnc3[nH]ccc23)cn1` (stereo not shown) [Example 5, 4-[(4-{3-cyano-2-[4-(7H-pyrrolo[2,3-d]pyrimidin-4-yl)-1H-pyrazol-1-yl)propyl}piperazin-1-yl)carbonyl]-3-fluorobenzonitrile] the same measures were below 0.01 µM and above 10.
With `N#CCC(CN1CCN(C(=O)c2ccc(C#N)cc2F)CC1)n1ccc(-c2ncnc3[nH]ccc23)c1` (stereo not shown) [Example 6, 4-[(4-{3-cyano-2-[3-(7H-pyrrolo[2,3-d]pyrimidin-4-yl)-1H-pyrrol-1-yl]propyl}piperazin-1-yl)carbonyl]-3-fluorobenzonitrile], the IC50 in test [1] is below 0.01 µM. In test [2], the JAK2/JAK1 is above 10.
The compound `N#CCC1(n2cc(-c3ncnc4[nH]ccc34)cn2)CN(C2CCN(C(=O)c3ccnc(C(F)(F)F)c3F)CC2)C1` [Example 7, {1-{1-[3-Fluoro-2-(trifluoromethyl)isonicotinoyl]piperidin-4-yl}-3-[4-(7H-pyrrolo[2,3-d]pyrimidin-4-yl)-1H-pyrazol-1-yl]azetidin-3-yl}acetonitrile] gave an IC50 in test [1] below 0.01 µM. Also, the JAK2/JAK1 in test [2] is on record as above 10.
Take `N#CCC1(n2cc(-c3ncnc4[nH]ccc34)cn2)CN(C2CCN(C(=O)Nc3ccc(F)cc3C(F)(F)F)CC2)C1` [Example 8, 4-{3-(Cyanomethyl)-3-[4-(7H-pyrrolo[2,3-d]pyrimidin-4-yl)-1H-pyrazol-1-yl]azetidin-1-yl}-N-[4-fluoro-2-(trifluoromethyl)phenyl] piperidine-1-carboxamide]: the 50% inhibitory concentration (IC50) in test [1] was below 0.01 µM. For the same compound, in test [2], the JAK2/JAK1 is on record as above 10.
In the case of `N#CCC1(n2cc(-c3ncnc4[nH]ccc34)cn2)CN(C2CCN(C(=O)c3ccnc(C(F)(F)F)n3)CC2)C1` [Example 9, [3-[4-(7H-pyrrolo[2,3-d]pyrimidin-4-yl)-1H-pyrazol-1-yl]-1-(1-{[2,- (trifluoromethyl)pyrimidin-4-yl]carbonyl}piperidin-4-yl)azetidin-3-yl]acetonitrile], the IC50 in test [1] is below 0.01 µM. The JAK2/JAK1 in test [2] is reported as above 10.
With `N#CC[C@]1(n2cc(-c3ncnc4[nH]ccc34)cn2)C[C@H](N2CCN(C(=O)c3ccnc(C(F)(F)F)n3)CC2)C1` [Example 10, [trans-1-[4-(7H-pyrrolo[2,3-d]pyrimidin-4-yl)-1H-pyrazol-1-yl]-3-(4-{[2-(trifluoromethyl)pyrimidin-4-yl]carbonyl}piperazin-1-yl)cyclobutyl]acetonitrile], the IC50 in test [1] was below 0.01 µM. For the same compound, the JAK2/JAK1 in test [2] is listed as above 10.
Turning to `N#CC[C@]1(n2cc(-c3ncnc4[nH]ccc34)cn2)C[C@H](N2CCC(Oc3cc(CN4CC(O)C4)cc(C(F)(F)F)n3)CC2)C1` [Example 11, {trans-3-(4-{[4-[(3-hydroxyazetidin-1-yl)methyl]-6-(trifluoromethyl)pyridin-2-yl]oxy}piperidin-1-yl)-1-[4-(7H-pyrrolo[2,3-d]pyrimidin-4-yl)-1H-pyrazol-1-yl]cyclobutyl}acetonitrile], in test [1], the IC50 was below 0.01 µM. Further, the JAK2/JAK1 in test [2] is recorded as above 10.
`N#CC[C@]1(n2cc(-c3ncnc4[nH]ccc34)cn2)C[C@H](N2CCC(Oc3cc(CN4CCC[C@H]4CO)cc(C(F)(F)F)n3)CC2)C1` [Example 12] came in with an IC50 in test [1] below 0.01 µM. Further, in test [2], the JAK2/JAK1 is listed as above 10.
As to `N#CC[C@]1(n2cc(-c3ncnc4[nH]ccc34)cn2)C[C@H](N2CCC(Oc3cc(CN4CCC[C@@H]4CO)cc(C(F)(F)F)n3)CC2)C1` [Example 13, {trans-3-(4-{[4-{[(2R)-2-(hydroxymethyl)pyrrolidin-1-yl]methyl}-6-(trifluoromethyl)pyridin-2-yl]oxy}piperidin-1-yl)-1-[4-(7H-pyrrolo[2,3-d]pyrimidin-4-yl)-1H-pyrazol-1-yl]cyclobutyl}acetonitrile], in test [1], the IC50 was below 0.01 µM. Also, the JAK2/JAK1 in test [2] is above 10.
The compound `C[C@H](NC(=O)c1cc(F)c(N2CC(CC#N)(n3cc(-c4ncnc5[nH]ccc45)cn3)C2)cc1F)C(F)(F)F` [Example 16, 4-{3-(cyanomethyl)-3-[4-(7H-pyrrolo[2,3-d]pyrimidin-4-yl)-1H-pyrazol-1-yl]azetidin-1-yl}-2,5-difluoro-N-[(1S)-2,2,2-trifluoro-1-methylethyl]benzamide] gave an IC50 in test [1] below 0.01 µM. Further, the JAK2/JAK1 in test [2] is recorded as above 10.
In the same order, the values of `N#CCC1(n2cc(-c3ncnc4[nH]ccc34)cn2)CN([C@H]2CC[C@@H](Oc3cc(CCO)nc(C(F)(F)F)n3)CC2)C1` [Example 18, {1-(cis-4-{[6-(2-hydroxyethyl)-2-(trifluoromethyl)pyrimidin-4-yl]oxy}cyclohexyl)-3-[4-(7H-pyrrolo[2,3-d]pyrimidin-4-yl)-1H-pyrazol-1-yl]azetidin-3-yl}acetonitrile] are below 0.01 µM and above 10.
For `CCNCc1cc(O[C@H]2CC[C@@H](N3CC(CC#N)(n4cc(-c5ncnc6[nH]ccc56)cn4)C3)CC2)nc(C(F)(F)F)c1` [Example 19, {1-(cis-4-{[4-[(ethylamino)methyl]-6-(trifluoromethyl)pyridin-2-yl]oxy}cyclohexyl)-3-[4-(7H-pyrrolo[2,3-d]pyrimidin-4-yl)-1H-pyrazol-1-yl]lazetidin-3-yl}acetonitrile], in test [1], the IC50 was below 0.01 µM. For the same compound, the JAK2/JAK1 in test [2] is reported as above 10.
Consider `CC(C)(O)c1cc(O[C@H]2CC[C@@H](N3CC(CC#N)(n4cc(-c5ncnc6[nH]ccc56)cn4)C3)CC2)nc(C(F)(F)F)c1` [Example 20, {1-(cis-4-{[4-(1-hydroxy-1-methylethyl)-6-(trifluoromethyl)pyridin-2-yl]oxy}cyclohexyl)-3-[4-(7H-pyrrolo[2,3-d]pyrimidin-4-yl)-1H-pyrazol-1-yl]azetidin-3-yl}acetonitrile], for which the IC50 in test [1] is below 0.01 µM. Further, the JAK2/JAK1 in test [2] is above 10.
Regarding `N#CCC1(n2cc(-c3ncnc4[nH]ccc34)cn2)CN([C@H]2CC[C@@H](Oc3cc(CN4CC[C@@H](O)C4)cc(C(F)(F)F)n3)CC2)C1` [Example 21], the IC50 in test [1] was below 0.01 µM. The JAK2/JAK1 in test [2] is listed as above 10.
`N#CCC1(n2cc(-c3ncnc4[nH]ccc34)cn2)CN([C@H]2CC[C@@H](Oc3cc(CN4CC[C@H](O)C4)cc(C(F)(F)F)n3)CC2)C1` [Example 22, {1-(cis-4-{[4-{[(3S)-3-hydroxypyrrolidin-1-yl]methyl}-6-(trifluoromethyl)pyridin-2-yl]oxy}cyclohexyl)-3-[4-(7H-pyrrolo[2,3-d]pyrimidin-4-yl)-1H-pyrazol-1-yl]azetidin-3-yl}acetonitrile] displayed an IC50 in test [1] below 0.01 µM. Besides, the JAK2/JAK1 in test [2] is above 10.
Turning to `C[C@@H](CO)NCc1cc(OC2CCN([C@H]3C[C@](CC#N)(n4cc(-c5ncnc6[nH]ccc56)cn4)C3)CC2)nc(C(F)(F)F)c1` [Example 23, {trans-3-(4-{[4-({[(1S)-2-hydroxy-1-methylethyl]amino}methyl)-6-(trifluoromethyl)pyridin-2-yl]oxy}piperidin-1-yl)-1-[4-(7H-pyrrolo[2,3-d]pyrimidin-4-yl)-1H-pyrazol-1-yl]cyclobutyl}acetonitrile], in test [1], the IC50 is below 0.01 µM. Also, the JAK2/JAK1 in test [2] is recorded as above 10.
In the same order, the values of `C[C@@H](O)CNCc1cc(OC2CCN([C@H]3C[C@](CC#N)(n4cc(-c5ncnc6[nH]ccc56)cn4)C3)CC2)nc(C(F)(F)F)c1` [Example 24, {trans-3-(4-{[4-({[(2R)-2-hydroxypropyl]amino}methyl)-6-(trifluoromethyl)pyridin-2-yl]oxy}piperidin-1-yl)-1-[4-(7H-pyrrolo[2,3-d]pyrimidin-4-yl)-1H-pyrazol-1-yl]cyclobutyl}acetonitrile] are below 0.01 µM and above 10.
For `C[C@H](O)CNCc1cc(OC2CCN([C@H]3C[C@](CC#N)(n4cc(-c5ncnc6[nH]ccc56)cn4)C3)CC2)nc(C(F)(F)F)c1` [Example 25, {trans-3-(4-{[4-({[(2S)-2-hydroxypropyl]amino}methyl)-6-(trifluoromethyl)pyridin-2-yl]oxy}piperidin-1-yl)-1-[4-(7H-pyrrolo[2,3-d]pyrimidin-4-yl)-1H-pyrazol-1-yl]cyclobutyl}acetonitrile] the same measures were below 0.01 µM and above 10.
For `N#CC[C@]1(n2cc(-c3ncnc4[nH]ccc34)cn2)C[C@H](N2CCC(Oc3cc(CCO)cc(C(F)(F)F)n3)CC2)C1` [Example 26, {trans-3-(4-{[4-(2-hydroxyethyl)-6-(trifluoromethyl)pyridin-2-yl]oxy}piperidin-1-yl)-1-[4-(7H-pyrrolo[2,3-d]pyrimidin-4-yl)-1H-pyrazol-1-yl]cyclobutyl}acetonitrile] the same measures were below 0.01 µM and above 10.
